Measurements as given in patent US20210163453A1, “DERIVATIVES OF PAPAVERINE THAT ARE EFFECTIVE HYPOXIC TUMOR RADIOSENSITIZERS” (Ohio State Innovation Foundation, priority 2018, published 2021).

Legend:
A549 flank xenografts = experiment: Tumor growth delay of A549 flank xenografts with radiation (XRT); type: in vivo, mice
Experimental: Curves represent mean tumor volumes+−SEM. P values were calculated against XRT with two-tailed two-sample t test. *P<0.05; **P<0.01; ***P<0.001; ****P<0.0001; n.s., not significant.
(§1) Tumor Growth kinetics. 2×10^6 EO771 or 5×10^6 A549 cells were injected s.c. into the flanks of 6-week old female immunocompetent C57/B6 (EO771) or immunocompromised nu/nu (A549) mice. Caliper measurements of opposing diameter were used to calculate the tumor volumes. Upon reaching […], the tumors were visualized by cone beam CT and treatment plans calculated using SARRP software. X-rays were delivered with a single beam delivering 5 Gy using the Small Animal Research Radiation Platform (SARRP, Xstrahl). Tumor volumes were measured until the post treatment volume increased 3-fold. Error bars represent standard deviation.
For the test of the A549 flank tumors, the tumors were treated similarly to the breast cancer model, but 8 Gy was used, and a treatment group added consisting of 8 Gy radiotherapy followed 30 minutes later by 2 mg/kg papaverine. The reverse schedule would indicate if the drug must be present before the radiation so that it would alter the tumor metabolism to make it more susceptible to the radiotherapy.

MP2 tumors = experiment: ODD-luciferase in vivo oxygen reporter (bioluminescence imaging); set-up: species or system mice; settings: orthotopic MP2 CMVluc tumors
Source text: (§2) FIGS. 14A-14E summarize results obtained using ODD-luciferase as an in vivo oxygen reporter. […] (n=3-4, P<0.05).
(§3) Use of ODD-luciferase as an in vivo oxygen reporter. We have fused the oxygen dependent degradation domain (ODD) of the HIF1a protein to the luciferase reporter protein. This fusion protein is expressed in tumor cells and is stable and reports well in hypoxia, but is destroyed by cellular machinery when cells are well oxygenated (FIG. 14A). These cells were used to grow tumors in immune-deficient mice and the animals were exposed either 95% oxygen/5% CO2 (carbogen) or medical air and the tumor bioluminescence imaged by IVIS 30 minutes post injection. Increasing oxygen breathing decreases reporter signal (FIG. 14B). These animals were then treated with either papaverine or vehicle (FIG. 14C) or SMV32 or vehicle (FIG. 14E).

MP2 ODDluc tumors = experiment: as above; set-up: species or system mice; settings: MP2 ODDluc tumors, 2 and 6 hours after drug
Source text: as §2, §3

EO771 tumors [1] = experiment: Pimonidazole staining, hypoxic fraction of EO771 tumors; type: in vivo, mice
Experimental: (§4) P values were calculated against thigh muscle with two-tailed two-sample t test. FIG. 3B-3C show normalized tissue oxygenation in EO771 (b) or A549 (c) tumor-bearing mice after injection of 2 mg/kg PPV or vehicle saline (readings taken every minute, and curve is average of 5 traces). P value was analyzed by linear mixed model with autoregressive correlation structure at T=30-40 minutes. […] Values are mean area covered by pimonidazole-positive cells evaluated from 20 images per animal+−SEM. P value was calculated with two-tailed two-sample t test. […] Curves represent mean tumor volumes+−SEM. P values were calculated against XRT with two-tailed two-sample t test.
(§5) Bar graphs represent the mean area covered by pimonidazole-positive cells evaluated from 20 images per animal+−standard error of the mean. P value was calculated against control with two-tailed two-sample t test. […] Mean volumes+−SEM. P values were calculated against XRT with two-tailed two-sample t test. *P<0.05; **P<0.01; ***P<0.001; ****P<0.0001; n.s., not significant.
Pimonidazole staining. […] […] […] The hypoxic fraction of each tumor was quantified by thresholding signal at 50% of the maximum signal on control sections. Area covered by pimonidazole-positive cells was evaluated from 20 images per animal and averaged. Error bars represent the standard deviation.

A549 cells = experiment: Seahorse OCR in A549 cells (dose response, IC50, washout); type: cell-based, Human
EO771 tumors [2] = experiment: Tumor growth delay of EO771 tumors with radiation (XRT); type: in vivo, mice; settings: for effect of drug before radiation on tumor growth delay (words): orthotopic EO771, 2 mg/kg 30-40 minutes before 5 Gy; for enhancement of tumor growth delay over XRT alone: orthotopic EO771, 2 mg/kg before 5 Gy
Experimental: as §4
FIGS. 4A-4G show tumor growth before and after radiosensitization with PPV. FIG. 4A-4B show in vitro radiation survival assessment of A549 cell line treated with 10 μm PPV in normoxia (FIG. 4A) and anoxia (FIG. 4B). […] Values represent averaged colony counts+−standard deviation. […] Values are mean tumor volumes+−SEM. […] Values are mean tumor volumes+−SEM. FIG. 4E-4F show tumor growth delay. When tumors reached 4-fold volume increase, groups receiving no treatment or PPV only (FIG. 4E); and XRT only or PPV followed by XRT (FIG. 4F), tumor weights were compared. Values are mean tumor weights+−SEM (n=8). P values were calculated with two-tailed two-sample t test. FIG. 4G are related to FIG. 4E-4F tumor growth delay. Representative images of orthotopic EO771 tumors harvested on day 11 after treatment with XRT (top) or 2 mg/kg PPV followed by XRT (bottom). *P<0.05; **P<0.01; ***P<0.001; ****P<0.0001; n.s., not significant.
as §5, §1
Both models of transplanted tumors that were used for the oxygenation experiments of papaverine's effect on radiation response in vivo were investigated. The murine breast cancer line EO771 that is syngeneic with the BL6 strain of mice was used and transplanted it orthotopically into the mammary fat pad of immune-competent mice. Also used was the human A549 lung adenocarcinoma line that was transplanted into the flank of immune-deficient mice. The breast cancers grew to approximately 150 mm^3 and were then randomized to receive either no treatment, a single dose of either 5 Gy, or papaverine at 2 mg/kg followed 30-40 minutes later by 5 Gy.

Compound | effect of drug after XRT on growth delay (A549 flank xenografts; 2 mg/kg after 8 Gy) | effect of drug before XRT on growth delay (A549 flank xenografts; 2 mg/kg before 8 Gy) | increase in tumor growth delay compared to XRT alone (A549 flank xenografts; 2 mg/kg before 8 Gy) | increase in tumor growth delay compared to XRT alone (A549 flank xenografts; 2 mg/kg before 8 Gy, listed as papaverine) | CMV luciferase (non-hypoxia responsive) control signal (MP2 tumors) | ODD-luciferase reporter signal (MP2 ODDluc tumors) | decrease in the hypoxic fraction of tumors (EO771 tumors [1]; 2 mg/kg PPV for one hour, pimonidazole) [%] | time for OCR to return to baseline after drug removal (washout) (A549 cells; 10 μM PPV, media replaced) | dose needed relative to rotenone for similar OCR inhibition (A549 cells; dose response analysis, A549) | effect of drug before radiation on tumor growth delay (words) (EO771 tumors [2]) | effect of drug before radiation on tumor growth delay (words) (EO771 tumors [2]; listed as papaverine) | enhancement of tumor growth delay over XRT alone (EO771 tumors [2]) | enhancement of tumor growth delay over XRT alone (EO771 tumors [2]; listed as papaverine) | effect of single dose of drug alone on tumor growth (EO771 tumors [2]; orthotopic EO771, 2 mg/kg, no XRT) | tumor hypoxia by pimonidazole staining (EO771 tumors [1]; orthotopic EO771, immune-competent mice, 2 mg per kg) | IC50 (A549 cells; Homo sapiens, A549 cells by Seahorse, n=5 replicates, read-out: mitochondrial IC50 (OCR IC50)) [µM] | growth delay compared to radiation alone (EO771 tumors [2]; heterotopic EO771 flank tumors, nude mice, 2 mg/kg 35 minutes prior to 5 Gy)
COc1ccc(Cc2nccc3cc(OC)c(OC)cc23)cc1OC [PPV, papaverine] | did not have any effect compared to radiation alone | enhances tumor growth delay | greater than 3 fold | 2.1-3.9 fold | did not show any change | significant decrease in signal | 72 | less than one and one | 100 × higher dose than rotenone | significantly adds to tumor growth delay | significantly enhanced the antitumor effects of the radiation | 2-4 fold | 1.9-2.8 fold | no significant effect | – | – | –
COc1cc2ccnc(Cc3cccc4ccccc34)c2cc1OC [SMV-32] | – | – | – | – | – | significant decrease in signal | – | – | – | – | – | – | – | – | decreased tumor hypoxia | 7.4 | activity that is comparable to papaverine
